Consider 7 molecules from ChEMBL document CHEMBL1123029, “Synthesis and biological evaluation of phosphonamidate peptide inhibitors of enkephalinase and angiotensin-converting enzyme” (J Med Chem, 1985).

Each structure is given as a SMILES string.

The target of the assay is T1, Neprilysin (Rattus norvegicus, UniProt P07861).
T1 sequence (P07861 whole entry): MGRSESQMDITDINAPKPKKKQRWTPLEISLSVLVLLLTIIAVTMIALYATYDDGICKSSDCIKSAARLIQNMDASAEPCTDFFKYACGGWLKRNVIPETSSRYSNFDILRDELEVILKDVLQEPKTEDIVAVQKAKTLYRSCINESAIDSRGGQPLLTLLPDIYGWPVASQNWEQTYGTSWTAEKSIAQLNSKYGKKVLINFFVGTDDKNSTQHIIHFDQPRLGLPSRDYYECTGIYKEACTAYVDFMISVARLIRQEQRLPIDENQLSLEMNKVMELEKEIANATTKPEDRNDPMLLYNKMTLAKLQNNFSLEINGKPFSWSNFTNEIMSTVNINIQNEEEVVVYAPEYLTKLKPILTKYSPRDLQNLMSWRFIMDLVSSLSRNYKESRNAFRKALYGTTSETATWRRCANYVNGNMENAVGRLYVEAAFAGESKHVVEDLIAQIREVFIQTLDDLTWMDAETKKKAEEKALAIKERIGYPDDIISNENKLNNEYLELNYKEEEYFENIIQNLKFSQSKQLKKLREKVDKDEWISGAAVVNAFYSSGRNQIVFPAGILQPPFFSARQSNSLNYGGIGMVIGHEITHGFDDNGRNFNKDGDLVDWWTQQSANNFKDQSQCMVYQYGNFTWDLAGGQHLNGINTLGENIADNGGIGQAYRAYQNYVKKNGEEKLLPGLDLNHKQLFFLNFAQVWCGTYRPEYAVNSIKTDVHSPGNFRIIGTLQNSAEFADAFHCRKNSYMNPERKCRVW
Nature of the assay: Binding affinity towards enkephalinase (metalloendopeptidase, E.C.3.4.24.11) of rat kidney.
As a reminder, the Ki is the equilibrium dissociation constant of an inhibitor or competing ligand from its target. For the molecule `CCOP(=O)(CNC(C)=O)NC(Cc1ccccc1)NC(CCSC)C(=O)O` (configuration not stated), the Ki was 160 µM.

The molecule `CC(C)CC(NC(Cc1ccccc1)NP(=O)(O)CNC(=O)c1ccccc1)C(=O)O` (configuration not stated) gave a Ki of 10.6 µM.

Regarding `CC(C)CC(NC(Cc1ccccc1)NP(=O)(O)CNC(=O)Cc1ccccc1)C(=O)O` (configuration not stated), the Ki came to 80.2 µM.

Molecule `CC(C)CC(NC(Cc1ccccc1)NP(=O)(O)CNC(=O)CCc1ccccc1)C(=O)O` (configuration not stated) registered a Ki of 1210 µM.

As to `CSCCC(NC(Cc1ccccc1)NP(=O)(O)CNC(C)=O)C(=O)O` (configuration not stated), the inhibition constant Ki amounted to 0.14 µM.

As to `CC(=O)NCP(=O)(O)NC(Cc1ccccc1)NC(CC(C)C)C(=O)O` (configuration not stated), the Ki was 0.85 µM.

In the case of `CC(C)C[C@H](NP(=O)(O)O[C@@H]1O[C@@H](C)[C@H](O)[C@@H](O)[C@H]1O)C(=O)N[C@@H](Cc1c[nH]c2ccccc12)C(=O)O` [PHOSPHORAMIDON], affinity was put at a Ki of 0.004 µM.
